What was measured:
5-HT1B receptor [1] = molecular target: T1, 5-HT1B receptor (Homo sapiens, UniProt P28222); assay: 5-HT1B receptor competition binding assay (SPA, [3H]-GR125743)
Method: (§1) These assays were be used with some modifications:
(§2) For the binding assay stably transfected chinese hamster ovary (CHO) cell lines expressing 5-HT1A receptors or 5-HT1B receptors were harvested by centrifugation at 300×g for 10 min and resuspended in 10 mM Tris-HCl, 5 mM EDTA at pH 7.4. The cells were pooled, recentrifuged and resuspended before homogenisation using a Dounce homogeniser (“type B”). Cell membranes were centrifuged at 48 000×g for 10 min and then resuspended in harvesting buffer using an Ultra-Turrax T8 (IKA Labortechnik, Germany), aliquots were stored frozen in −70° C.
(§3) Frozen membrane preparations were thawed, homogenized with an Ultra-Turrax and mixed with SPA beads (YSI coated WGA, GE Healthcare/Amersham, Buckinghamshire, UK) in assay buffer containing 50 mM Tris-Base, 4 mM MgCl2, 4 mM CaCl2 (only 5-HT1B), 1 mM EDTA, and adjusted to pH 7.4 with HCl. The beads/membrane solution, final concentration 100 pM receptors for 5-HT1A, 300 pM receptors for 5-HT1B and 0.5 mg SPA beads/well, was pre-incubated in room temperature with stirring for 30-60 min. […] The assay plates were incubated for 4 hours where after the plates are counted in a Wallac 1450 Microbeta Trilux counter (PerkinElmer LifeScience, US) or similar. Data from the experiments were analyzed using a four parameter logistic equation as follows: Y=Bottom+(Top−Bottom)/1+10^(Log EC50-X)nH.

5-HT1A receptors = molecular target: T2, 5-HT1A receptors (Homo sapiens, UniProt P08908); assay: 5-HT1A receptor competition binding assay (SPA, [3H]-8-OH-DPAT)
T2 sequence (P08908 1-422): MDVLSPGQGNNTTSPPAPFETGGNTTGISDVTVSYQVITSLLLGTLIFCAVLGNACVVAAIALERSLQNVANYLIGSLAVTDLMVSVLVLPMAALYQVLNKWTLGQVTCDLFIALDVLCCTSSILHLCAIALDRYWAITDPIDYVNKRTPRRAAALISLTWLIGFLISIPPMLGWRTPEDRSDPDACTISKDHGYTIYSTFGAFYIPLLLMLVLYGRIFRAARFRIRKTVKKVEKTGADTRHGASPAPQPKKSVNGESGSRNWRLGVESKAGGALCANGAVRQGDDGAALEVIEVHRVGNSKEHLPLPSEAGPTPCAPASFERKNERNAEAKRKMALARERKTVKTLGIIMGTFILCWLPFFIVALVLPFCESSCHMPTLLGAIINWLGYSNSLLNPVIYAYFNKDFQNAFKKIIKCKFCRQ
Method: as §1, §2, §3

5-HT1B receptor [2] = molecular target: T1, 5-HT1B receptor; assay: saturation binding studies, 5-HT1B receptor; details: read-out: Kd of radioligand (used in calculation of Ki values)
Method: Frozen membrane preparations were thawed, homogenized with an Ultra-Turrax and mixed with SPA beads (YSI coated WGA, GE Healthcare/Amersham, Buckinghamshire, UK) in assay buffer containing 50 mM Tris-Base, 4 mM MgCl2, 4 mM CaCl2 (only 5-HT1B), 1 mM EDTA, and adjusted to pH 7.4 with HCl. The beads/membrane solution, final concentration 100 pM receptors for 5-HT1A, 300 pM receptors for 5-HT1B and 0.5 mg SPA beads/well, was pre-incubated in room temperature with stirring for 30-60 min. […] Five (log interval, 10 μM to 1 nM, final concentration) or ten serial dilutions (½-log interval, 0.1 μM to 0.0032 nM, final concentration) of compounds were prepared in DMSO from 10 mM stock solutions. The binding assays were performed in 384-well plates in a final volume of 90 μL/well with the following additions: 9 μL binding buffer; 1 μL compound/DMSO/nonspecific; 20 μL radioligand; and 60 μL beads/membrane mixture. Non-specific binding was defined by using 10 μM WAY100635 for 5-HT1A and 10 μM Methiothepin for 5-HT1B. The assay plates were incubated for 4 hours where after the plates are counted in a Wallac 1450 Microbeta Trilux counter (PerkinElmer LifeScience, US) or similar. Data from the experiments were analyzed using a four parameter logistic equation as follows: Y=Bottom+(Top−Bottom)/1+10^(Log EC50-X)nH.

T1 sequence (P28222 whole entry): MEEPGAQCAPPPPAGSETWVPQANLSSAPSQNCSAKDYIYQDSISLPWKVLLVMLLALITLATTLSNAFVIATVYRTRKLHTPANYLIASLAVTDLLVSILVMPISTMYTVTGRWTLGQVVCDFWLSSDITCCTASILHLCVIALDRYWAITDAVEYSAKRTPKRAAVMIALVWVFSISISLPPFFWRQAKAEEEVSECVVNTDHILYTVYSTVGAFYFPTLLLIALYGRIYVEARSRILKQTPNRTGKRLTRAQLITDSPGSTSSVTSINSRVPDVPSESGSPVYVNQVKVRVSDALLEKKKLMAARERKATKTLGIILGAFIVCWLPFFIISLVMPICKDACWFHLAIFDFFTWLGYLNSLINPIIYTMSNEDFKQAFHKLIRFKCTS

Row | Ki (5-HT1B receptor [1]) [nM] | Ki (5-HT1A receptors) [nM] | Kd (5-HT1B receptor [2]) [nM] | SMILES
1 | 0.65 | 0.07 |  | CNC(=O)c1cc2c(N3CCN(CCc4cccc5c4CCC(=O)N5C)CC3)cccc2o1 [compound of formula (I), N-Methyl-4-[4-[2-(1-methyl-2-oxo-3,4-dihydroquinolin-5-yl)ethyl]piperazin-1-yl]benzofuran-2-carboxamide]
2 |  |  | 0.87 | COc1ccc(NC(=O)c2ccc(-c3ccncc3)c(C)c2)cc1N1CCN(C)CC1 [[^3H]-GR125743]
